Patent US12371454B2, “Cyclic peptide compound having Kras inhibitory action” (priority 2019, dated 2025)
pIC50: −log10 of the molar value. Starred links: 1 amine or outer side, 2 acyl side, 3 side chain; linkers in the order of their positions; H or OH if unused. Positions of bridges follow the written chain, without caps; N, C: chain ends. Non-standard residues stand in square brackets, D forms with d. Residues, ends and D or L forms follow the SMILES beside them. *: point of attachment. hPhe(3-Cl-4-CF3) = N[C@@H](CCc1ccc(C(F)(F)F)c(Cl)c1)C(=O)O; X58 = O=C([C@H](CCc1ccc(OC(F)(F)F)c(F)c1)N[*:1])[*:2]; NMePhe(4-CF3) = CN[C@@H](Cc1ccc(C(F)(F)F)cc1)C(=O)O; X68 = O=C([C@H](CCc1ccc(OC(F)F)c(F)c1)N[*:1])[*:2]; 3Oxa8azabicyclo(3.2.1)octane = C1CC2COCC1N2*; NMePhe(4-Me) = CN[C@@H](Cc1ccc(C)cc1)C(=O)O; NMePhe(4-F) = CN[C@@H](Cc1ccc(F)cc1)C(=O)O; NMeAla(cPent) = CN[C@@H](CC1CCCC1)C(=O)O; NMeGly(cPent) = CN[C@H](C(=O)O)C1CCCC1; NMeCha = CN[C@@H](CC1CCCCC1)C(=O)O; NMehLeu = CN[C@@H](CCC(C)C)C(=O)O; NEtLeu = CCN[C@@H](CC(C)C)C(=O)O; NMeChg = CN[C@H](C(=O)O)C1CCCCC1; NMeI = CC[C@H](C)[C@H](NC)C(=O)O; NMeD = CN[C@@H](CC(=O)O)C(=O)O; NMeL = CN[C@@H](CC(C)C)C(=O)O; NMehSer = CN[C@@H](CCO)C(=O)O; NMeNva = CCC[C@H](NC)C(=O)O; NMeV = CN[C@H](C(=O)O)C(C)C; d(β3hA) = C[C@@H](N)CC(=O)O; NMeS = CN[C@@H](CO)C(=O)O; Morpholide = C1CN(*)CCO1; NMeA = CN[C@@H](C)C(=O)O; Piperidide = C1CCN(*)CC1; Pyrrolidide = C1CCN(*)C1; Ac5c = NC1(C(=O)O)CCCC1; Aze = O=C(O)[C@@H]1CCN1; Sar = CNCC(=O)O; Propyl = CCC*

System: Human pancreatic cancer cell line AsPC-1
Assay: Measurement of AsPC-1 cell growth inhibition (AsPC-1 CGI)
Type: cell-based
Conditions: 96 h
Summary of the method: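 AsPC-1 cells in 15% FBS RPMI-1640 were exposed to test compound for 96 hours at 37° C, with CellTiter-Glo as endpoint.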

SMILES	pIC50
CC[C@H](C)[C@@H]1NC(=O)[C@H](CC(C)C)N(C)C(=O)C[C@@H](C(=O)N2CCOCC2)N(C)C(=O)[C@H](C2CCCC2)N(C)C(=O)C2(CCCC2)NC(=O)[C@@H]2CCCN2C(=O)[C@H](CCc2ccc(C(F)(F)F)c(Cl)c2)NC(=O)CN(C)C(=O)[C@H](CC2CCCCC2)N(C)C(=O)[C@@H]2CCN2C(=O)[C@H](C)NC1=O [Compound 1137] ([NMeL]IA[Aze][NMeCha][Sar][hPhe(3-Cl-4-CF3)]P[Ac5c][NMeGly(cPent)][NMeD]-Morpholide; lactam N-11)	7.30 to 7.70
CCCOC[C@H]1C(=O)N(C)CC(=O)N[C@@H](CCc2ccc(C(F)(F)F)c(Cl)c2)C(=O)N2CCC[C@H]2C(=O)NC2(CCCC2)C(=O)N(C)[C@@H](C2CCCC2)C(=O)N(C)[C@H](C(=O)N2C3CCC2COC3)CC(=O)N(C)[C@@H](CC2CCCC2)C(=O)N[C@@H]([C@@H](C)CC)C(=O)N[C@@H](C)C(=O)N2CC[C@H]2C(=O)N1C [Compound 1359] ([NMeAla(cPent)]IA[Aze][NMeS](Propyl)[Sar][hPhe(3-Cl-4-CF3)]P[Ac5c][NMeGly(cPent)][NMeD]-{3Oxa8azabicyclo(3.2.1)octane}; lactam N-11)	7.00 to 7.30
CC[C@H](C)[C@@H]1NC(=O)[C@H](CC(C)C)N(C)C(=O)C[C@@H](C(=O)N2CCCCC2)N(C)C(=O)[C@H](C2CCCC2)N(C)C(=O)C2(CCCC2)NC(=O)[C@@H]2CCCN2C(=O)[C@H](CCc2ccc(C(F)(F)F)c(Cl)c2)NC(=O)CN(C)C(=O)[C@H](Cc2ccc(F)cc2)N(C)C(=O)[C@@H]2CCN2C(=O)[C@H](C)N(C)C1=O [Compound 388] ([NMeL]I[NMeA][Aze][NMePhe(4-F)][Sar][hPhe(3-Cl-4-CF3)]P[Ac5c][NMeGly(cPent)][NMeD]-Piperidide; lactam N-11)	7.30 to 7.70
CCCOC[C@H]1C(=O)N(C)CC(=O)N[C@@H](CCc2ccc(C(F)(F)F)c(Cl)c2)C(=O)N2CCC[C@H]2C(=O)NC2(CCCC2)C(=O)N(C)[C@@H](C2CCCC2)C(=O)N(C)[C@H](C(=O)N2C3CCC2COC3)CC(=O)N(CC)[C@@H](CC(C)C)C(=O)N[C@@H]([C@@H](C)CC)C(=O)N[C@@H](C)C(=O)N2CC[C@H]2C(=O)N1C [Compound 1167] ([NEtLeu]IA[Aze][NMeS](Propyl)[Sar][hPhe(3-Cl-4-CF3)]P[Ac5c][NMeGly(cPent)][NMeD]-{3Oxa8azabicyclo(3.2.1)octane}; lactam N-11)	6.30 to 7.00
CC[C@H](C)[C@@H]1NC(=O)[C@H](CC(C)C)N(C)C(=O)C[C@@H](C(=O)N2CCCCC2)N(C)C(=O)[C@H](C(C)C)N(C)C(=O)C2(CCCC2)NC(=O)[C@@H]2CCCN2C(=O)[C@H](CCc2ccc(C(F)(F)F)c(Cl)c2)NC(=O)CN(C)C(=O)[C@H](C(C)C)N(C)C(=O)[C@@H]2CCN2C(=O)[C@H](C)N(C)C1=O [Compound 1737] ([NMeL]I[NMeA][Aze][NMeV][Sar][hPhe(3-Cl-4-CF3)]P[Ac5c][NMeV][NMeD]-Piperidide; lactam N-11)	6.30 to 7.00
CC[C@H](C)[C@@H]1NC(=O)[C@H](CC(C)C)N(CC)C(=O)C[C@@H](C(=O)N2CCOCC2)N(C)C(=O)[C@H]([C@@H](C)CC)N(C)C(=O)C2(CCCC2)NC(=O)[C@@H]2CCCN2C(=O)[C@H](CCc2ccc(C(F)(F)F)c(Cl)c2)NC(=O)CN(C)C(=O)[C@H](Cc2ccc(C(F)(F)F)cc2)N(C)C(=O)[C@@H]2CCN2C(=O)[C@H](C)NC1=O [Compound 1233] ([NEtLeu]IA[Aze][NMePhe(4-CF3)][Sar][hPhe(3-Cl-4-CF3)]P[Ac5c][NMeI][NMeD]-Morpholide; lactam N-11)	7.00 to 7.30
CCCOC[C@H]1C(=O)N(C)CC(=O)N[C@@H](CCc2ccc(C(F)(F)F)c(Cl)c2)C(=O)N2CCC[C@H]2C(=O)NC2(CCCC2)C(=O)N(C)[C@@H](C2CCCC2)C(=O)N(C)[C@H](C(=O)N2C3CCC2COC3)CC(=O)N(C)[C@@H](CCC(C)C)C(=O)N[C@@H]([C@@H](C)CC)C(=O)N(C)[C@@H](C)C(=O)N2CC[C@H]2C(=O)N1C [Compound 1154] ([NMehLeu]I[NMeA][Aze][NMeS](Propyl)[Sar][hPhe(3-Cl-4-CF3)]P[Ac5c][NMeGly(cPent)][NMeD]-{3Oxa8azabicyclo(3.2.1)octane}; lactam N-11)	7.30 to 7.70
CC[C@H](C)[C@@H]1NC(=O)[C@H](CC(C)C)N(CC)C(=O)C[C@@H](C(=O)N2CCCCC2)N(C)C(=O)[C@H](C(C)C)N(C)C(=O)C2(CCCC2)NC(=O)[C@@H]2CCCN2C(=O)[C@H](CCc2ccc(C(F)(F)F)c(Cl)c2)NC(=O)CN(C)C(=O)[C@H](CC2CCCCC2)N(C)C(=O)[C@@H]2CCN2C(=O)[C@H](C)N(C)C1=O [Compound 667] ([NEtLeu]I[NMeA][Aze][NMeCha][Sar][hPhe(3-Cl-4-CF3)]P[Ac5c][NMeV][NMeD]-Piperidide; lactam N-11)	6.30 to 7.00
CC[C@H](C)[C@@H]1NC(=O)[C@H](CC(C)C)N(C)C(=O)C[C@@H](C(=O)N2CCCCC2)N(C)C(=O)[C@H](C2CCCCC2)N(C)C(=O)C2(CCCC2)NC(=O)[C@@H]2CCCN2C(=O)[C@H](CCc2ccc(C(F)(F)F)c(Cl)c2)NC(=O)CN(C)C(=O)[C@H](CC2CCCCC2)N(C)C(=O)[C@@H]2CCN2C(=O)[C@H](C)N(C)C1=O [Compound 249] ([NMeL]I[NMeA][Aze][NMeCha][Sar][hPhe(3-Cl-4-CF3)]P[Ac5c][NMeChg][NMeD]-Piperidide; lactam N-11)	6.30 to 7.00
CC[C@H](C)[C@@H]1NC(=O)[C@H](CC(C)C)N(C)C(=O)C[C@@H](C(=O)N2CCCCC2)N(C)C(=O)[C@H](C2CCCC2)N(C)C(=O)C2(CCCC2)NC(=O)[C@@H]2CCCN2C(=O)[C@H](CCc2ccc(OC(F)(F)F)c(F)c2)NC(=O)CN(C)C(=O)[C@H](CC2CCCCC2)N(C)C(=O)[C@@H]2CCN2C(=O)[C@H](C)N(C)C1=O [Compound 2067] ([NMeL]I[NMeA][Aze][NMeCha][Sar][X58]P[Ac5c][NMeGly(cPent)][NMeD]-Piperidide; lactam N-11)	7.30 to 7.70
CC[C@H](C)[C@@H]1NC(=O)[C@H](CC(C)C)N(C)C(=O)C[C@@H](C(=O)N(C)C)N(C)C(=O)[C@H](C2CCCCC2)N(C)C(=O)C2(CCCC2)NC(=O)[C@@H]2CCCN2C(=O)[C@H](CCc2ccc(C(F)(F)F)c(Cl)c2)NC(=O)CN(C)C(=O)[C@H](Cc2ccc(C)cc2)N(C)C(=O)[C@@H]2CCN2C(=O)[C@H](C)N(C)C1=O [Compound 1685] ([NMeL]I[NMeA][Aze][NMePhe(4-Me)][Sar][hPhe(3-Cl-4-CF3)]P[Ac5c][NMeChg][NMeD]-NMe2; lactam N-11)	7.30 to 7.70
CC[C@H](C)[C@@H]1NC(=O)[C@H](CC(C)C)N(C)C(=O)C[C@@H](C(=O)N2CCCCC2)N(C)C(=O)[C@H](C2CCCCC2)N(C)C(=O)C2(CCCC2)NC(=O)[C@H](C)N(C)C(=O)[C@H](CCc2ccc(C(F)(F)F)c(Cl)c2)NC(=O)CN(C)C(=O)[C@H](CC2CCCCC2)N(C)C(=O)CN(C)C(=O)CN(C)C1=O [Compound 294] ([NMeL]I[Sar][Sar][NMeCha][Sar][hPhe(3-Cl-4-CF3)][NMeA][Ac5c][NMeChg][NMeD]-Piperidide; lactam N-11)	6.30 to 7.00
CC[C@H](C)[C@@H]1NC(=O)[C@H](CC(C)C)N(C)C(=O)C[C@@H](C(=O)N2CCCCC2)N(C)C(=O)[C@H](C2CCCC2)N(C)C(=O)C2(CCCC2)NC(=O)[C@@H]2CCCN2C(=O)[C@H](CCc2ccc(OC(F)F)c(F)c2)NC(=O)CN(C)C(=O)[C@H](CC2CCCCC2)N(C)C(=O)[C@@H]2CCN2C(=O)[C@H](C)N(C)C1=O [Compound 2076] ([NMeL]I[NMeA][Aze][NMeCha][Sar][X68]P[Ac5c][NMeGly(cPent)][NMeD]-Piperidide; lactam N-11)	7.00 to 7.30
CC[C@H](C)[C@@H]1NC(=O)[C@H](CC(C)C)N(C)C(=O)C[C@@H](C(=O)N2CCCCC2)N(C)C(=O)[C@H]([C@@H](C)CC)N(C)C(=O)C2(CCCC2)NC(=O)[C@@H]2CCCN2C(=O)[C@H](CCc2ccc(C(F)(F)F)c(Cl)c2)NC(=O)CN(C)C(=O)[C@H](C2CCCC2)N(C)C(=O)[C@@H]2CCN2C(=O)[C@H](C)N(C)C1=O [Compound 807] ([NMeL]I[NMeA][Aze][NMeGly(cPent)][Sar][hPhe(3-Cl-4-CF3)]P[Ac5c][NMeI][NMeD]-Piperidide; lactam N-11)	7.30 to 7.70
CC[C@H](C)[C@@H]1NC(=O)[C@H](CC(C)C)N(C)C(=O)C[C@@H](C(=O)N2CCCC2)N(C)C(=O)[C@H](C2CCCC2)N(C)C(=O)C2(CCCC2)NC(=O)[C@@H]2CCCN2C(=O)[C@H](CCc2ccc(C(F)(F)F)c(Cl)c2)NC(=O)CN(C)C(=O)[C@H](C2CCCC2)N(C)C(=O)[C@@H]2CCN2C(=O)[C@H](C)N(C)C1=O [Compound 201] ([NMeL]I[NMeA][Aze][NMeGly(cPent)][Sar][hPhe(3-Cl-4-CF3)]P[Ac5c][NMeGly(cPent)][NMeD]-Pyrrolidide; lactam N-11)	7.30 to 7.70
CC[C@H](C)[C@@H]1NC(=O)[C@H](CC(C)C)N(C)C(=O)C[C@@H](C(=O)N2CCCCC2)N(C)C(=O)[C@H](C2CCCCC2)N(C)C(=O)C2(CCCC2)NC(=O)[C@H](CCOC)N(C)C(=O)[C@H](CCc2ccc(C(F)(F)F)c(Cl)c2)NC(=O)CN(C)C(=O)[C@H](CC2CCCCC2)N(C)C(=O)CN(C)C(=O)CN(C)C1=O [Compound 2168] ([NMeL]I[Sar][Sar][NMeCha][Sar][hPhe(3-Cl-4-CF3)][NMehSer](Me)[Ac5c][NMeChg][NMeD]-Piperidide; lactam N-11)	6.30 to 7.00
CCC[C@H]1C(=O)N(C)[C@H](C(=O)N2CCCCC2)CC(=O)N(C)[C@@H](CC(C)C)C(=O)N[C@@H]([C@@H](C)CC)C(=O)N(C)[C@@H](C)C(=O)N2CC[C@H]2C(=O)N(C)[C@@H](CC2CCCCC2)C(=O)N(C)CC(=O)N[C@@H](CCc2ccc(C(F)(F)F)c(Cl)c2)C(=O)N2CCC[C@H]2C(=O)NC2(CCCC2)C(=O)N1C [Compound 995] ([NMeL]I[NMeA][Aze][NMeCha][Sar][hPhe(3-Cl-4-CF3)]P[Ac5c][NMeNva][NMeD]-Piperidide; lactam N-11)	6.30 to 7.00
CC[C@H](C)[C@@H]1NC(=O)[C@H](CC(C)C)N(C)C(=O)C[C@@H](C)NC(=O)[C@H](C2CCCC2)N(C)C(=O)C2(CCCC2)NC(=O)[C@@H]2CCCN2C(=O)[C@H](CCc2ccc(C(F)(F)F)c(Cl)c2)NC(=O)CN(C)C(=O)[C@H](Cc2ccc(C(F)(F)F)cc2)N(C)C(=O)[C@@H]2CCN2C(=O)[C@H](C)N(C)C1=O [Compound 1475] (cyclo([Ac5c][NMeGly(cPent)][d(β3hA)][NMeL]I[NMeA][Aze][NMePhe(4-CF3)][Sar][hPhe(3-Cl-4-CF3)]P))	7.00 to 7.30
